Results reported in US20250302798A1, “STING INHIBITORS AND USE THEREOF” (CARMEL HAIFA UNIVERSITY ECONOMIC CORPORATION LTD., priority 2022, published 2025).
Entries after “also recorded” stand apart in the source; their conditions may differ.

Biological target: T1, STING (Mus musculus, UniProt Q3TBT3)
T1 sequence (Q3TBT3 1-378): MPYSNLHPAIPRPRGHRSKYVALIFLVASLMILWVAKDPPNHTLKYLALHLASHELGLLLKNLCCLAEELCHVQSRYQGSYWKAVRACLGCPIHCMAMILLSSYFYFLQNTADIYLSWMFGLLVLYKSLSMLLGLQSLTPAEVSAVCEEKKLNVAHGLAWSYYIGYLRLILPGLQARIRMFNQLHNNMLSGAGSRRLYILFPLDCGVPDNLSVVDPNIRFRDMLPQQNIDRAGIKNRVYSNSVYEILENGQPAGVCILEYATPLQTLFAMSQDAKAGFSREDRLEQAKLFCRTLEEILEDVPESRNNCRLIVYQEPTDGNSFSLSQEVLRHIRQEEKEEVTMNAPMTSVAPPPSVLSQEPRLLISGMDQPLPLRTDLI
Assay: Cytokine secretion (ELISA) from DMXAA-activated splenocytes
Format: cell-based, C57BL/6 mice
Set-up: Splenocytes were recovered from C57BL/6 WT female mice; endogenous in cells; host or cells: primary splenocytes of C57BL/6 mice
Protocol: FIGS. 1A-1B include bar graphs showing that Cluster 1 and 9 inhibit tumor necrosis factor alpha (TNFα) while only cluster 1 promotes IL-10 secretion from resting splenocytes activated by the selective STING agonist DMXAA. Splenocytes were recovered from C57BL/6 WT or STING^−/− female mice and were incubated (1×10^6 cells in 0.5 mL of culture media) overnight with a premade mixture of the individual compounds in each cluster (5-500 nM) or vehicle, and DMXAA (10 μM). Next, culture supernatants were collected and TNFα(1A) or IL-10 (1B) levels were determined by standard enzyme-linked immunosorbent assay ELISA (Biolegend).
FIGS. 2A-2D include graphs showing that compounds 5.9 and 7.9 inhibit TNFα and IL-10 secretion from DMXAA-activated splenocytes. Splenocytes were recovered from C57BL/6 WT female mice and incubated (1×10^6 cells in 0.5 mL of culture media) overnight with the individual compounds from cluster 9 (50-5,000 nM) or vehicle and DMXAA (5-10 μM; 2A-2B) or at 5,000 nM without DMXAA (2C-2D). Next, culture supernatants were collected and TNFα (2A, and 2C) or IL-10 (2B, and 2D) levels were determined by standard ELISA. In 2A-2B, black horizontal line indicates secretion level from vehicle-treated cells.
FIGS. 3A-3H include graphs and an image showing that compounds 2.1, 4.1, and 6.1 inhibit TNFα but promote IL-10 and IFN-beta secretion from DMXAA-activated splenocytes. Splenocytes were recovered from C57BL/6 WT female mice and incubated (1×10^6 cells in 0.5 mL of culture media) overnight with the individual compounds from cluster 1 (50-5,000 nM) or vehicle and DMXAA (10 μM; 3A, 3C, and 3E) or at 5,000 nM without DMXAA (3B, 3D, and 3F). Next, culture supernatants were collected and TNFα (3A-3B), IL-10 (3C-3D), or IFN-beta (3E-3F) levels were determined by standard ELISA. In 3A, 3C, and 3E, black horizontal line indicates secretion level from vehicle-treated cells. (3G-3H) Biased STING agonists (BiSTs) enhance DMXAA-induced STING signaling. Splenocytes were treated with 25 μg/ml DMXAA and 50 nM of compound 2.1 for 1-4 hr (3G). Then, the cells were analyzed by immunoblotting for phosphorylated STING, TBK-1, IRF3, and NF-kB, or their unphosphorylated controls, or actin as a loading control. Densitometry analysis for phosphorylated STING (p-STING) and STING proteins (3H) is also shown. Results are representative (3G) or mean±SEM (3H) from 3 repeats. One-way ANOVA, and Tukey HSD test *P<0.05.
Splenocytes were isolated from the spleens of unchallenged C57BL/6 WT or STING-KO mice by meshing against a grid. Peritoneal macrophages were isolated from mice undergoing peritonitis for 66 hr by washing with 5 ml PBS. The cellular exudate was stained with phycoerythrin (PE)-conjugated anti-F4/80 antibodies (bioLegend, CA, USA) and macrophages were isolated using magnetic beads (STEMCELL Technologies Inc, Vancouver, Canada). Isolated splenocytes or macrophages (0.5-1×10^6 cells per well) were incubated with 50-5,000 nM of individual substances or pooled clusters thereof. Then, the cells were treated with vehicle or 5-10 μM DMXAA (Cayman Chemical, MI, USA) to activate STING. After 24 hr, culture supernatants were collected and evaluated for levels of: TNFα, IFN-β and/or IL-10 using, standard ELISA (BioLegend, CA, USA).
To test which cluster(s) included compounds that modulate STING-mediated cytokine production, wild-type (WT) or STING knockout (−/−) splenocytes were incubated with the selective murine STING agonist DMXAA alone or with 5-500 nM of the pooled individual compounds in each cluster as indicated.
Next, the individual compounds in clusters 1 and 9 were tested at 50-5,000 nM. The first experiment was performed in resting splenocytes as detailed above.

[1] = individual compounds 50-5,000 nM + DMXAA 5-10 μM, overnight

STING inhibition (ranking) (at 5,000 nM, resting splenocytes): Best STING Inhibitors | Mode of action on STING (overall) (summary over various cell types, DMXAA stimulation): biased agonists
SMILES: c1ccc(CSc2nnc(CCCCCCCCc3nnc(SCc4ccccc4)o3)o2)cc1 [Compound 2.1, 2-(benzylsulfanyl)-5-{8-[5-(benzylsulfanyl)-1,3,4-oxadiazol-2-yl]octyl}-1,3,4-oxadiazole]
IFN-beta secretion (individual compounds 50-5,000 nM + DMXAA 10 μM, overnight): most potent inducer; also recorded: promote | IL-10 secretion [1]: most potent inducer; also recorded: promote | TNFα secretion [1]: doing so at lower concentrations; also recorded: inhibit
